# Laboratory results from the kinase profiling compilation of Christmann-Franck et al. (2016).
# What was measured:
# Experiment in all cases: radiometric filter-binding kinase assay, Kinase HotSpot
# Settings in all cases: compound 0.5 µM; ATP 10 µM
# CDK7 CCNH MNAT1 (human) = CDK7 CCNH MNAT1 (human) (UniProt P50613+P51948+P51946)
# CLK4 (human) = CLK4 (human) (UniProt Q9HAZ1)
# GRK6 (human) = GRK6 (human) (UniProt P43250)
# PRKCH (human) = PRKCH (human) (UniProt P24723)
# STK33 (human) = STK33 (human) (UniProt Q9BYT3)
# NTRK2 (human) = NTRK2 (human) (UniProt Q16620)
# MYLK2 (human) = MYLK2 (human) (UniProt Q9H1R3)
# DYRK1A (human) = DYRK1A (human) (UniProt Q13627)
# SRPK3 (human) = SRPK3 (human) (UniProt Q9UPE1)
# Chain of SRPK3 (human) (Q9UPE1 whole entry, looked up): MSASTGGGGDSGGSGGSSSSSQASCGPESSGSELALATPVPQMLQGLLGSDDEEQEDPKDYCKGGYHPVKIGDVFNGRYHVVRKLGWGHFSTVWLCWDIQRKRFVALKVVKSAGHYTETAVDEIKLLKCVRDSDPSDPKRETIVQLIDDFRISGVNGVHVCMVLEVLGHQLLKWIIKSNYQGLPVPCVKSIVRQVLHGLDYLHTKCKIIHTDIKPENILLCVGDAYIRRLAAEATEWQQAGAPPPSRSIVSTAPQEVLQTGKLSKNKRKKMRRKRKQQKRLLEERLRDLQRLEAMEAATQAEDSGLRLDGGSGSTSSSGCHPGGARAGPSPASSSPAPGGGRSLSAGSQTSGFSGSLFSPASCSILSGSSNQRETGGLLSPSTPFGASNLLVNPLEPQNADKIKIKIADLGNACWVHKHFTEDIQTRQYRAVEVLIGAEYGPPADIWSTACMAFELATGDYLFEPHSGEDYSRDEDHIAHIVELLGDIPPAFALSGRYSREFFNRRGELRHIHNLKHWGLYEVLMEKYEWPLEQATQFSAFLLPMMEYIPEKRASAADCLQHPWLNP
# CAMK2G (human) = CAMK2G (human) (UniProt Q13555)
# STK16 (human) = STK16 (human) (UniProt O75716)
# IKBKB (human) = IKBKB (human) (UniProt O14920)
# MLTK (human) = MLTK (human) (UniProt Q9NYL2)
# EPHA1 (human) = EPHA1 (human) (UniProt P21709)
# ADRBK2 (human) = ADRBK2 (human) (UniProt P35626)
# PAK3 (human) = PAK3 (human) (UniProt O75914)
# AKT3 (human) = AKT3 (human) (UniProt Q9Y243)
# NUAK2 (human) = NUAK2 (human) (UniProt Q9H093)
# Chain of NUAK2 (human) (Q9H093 whole entry, looked up): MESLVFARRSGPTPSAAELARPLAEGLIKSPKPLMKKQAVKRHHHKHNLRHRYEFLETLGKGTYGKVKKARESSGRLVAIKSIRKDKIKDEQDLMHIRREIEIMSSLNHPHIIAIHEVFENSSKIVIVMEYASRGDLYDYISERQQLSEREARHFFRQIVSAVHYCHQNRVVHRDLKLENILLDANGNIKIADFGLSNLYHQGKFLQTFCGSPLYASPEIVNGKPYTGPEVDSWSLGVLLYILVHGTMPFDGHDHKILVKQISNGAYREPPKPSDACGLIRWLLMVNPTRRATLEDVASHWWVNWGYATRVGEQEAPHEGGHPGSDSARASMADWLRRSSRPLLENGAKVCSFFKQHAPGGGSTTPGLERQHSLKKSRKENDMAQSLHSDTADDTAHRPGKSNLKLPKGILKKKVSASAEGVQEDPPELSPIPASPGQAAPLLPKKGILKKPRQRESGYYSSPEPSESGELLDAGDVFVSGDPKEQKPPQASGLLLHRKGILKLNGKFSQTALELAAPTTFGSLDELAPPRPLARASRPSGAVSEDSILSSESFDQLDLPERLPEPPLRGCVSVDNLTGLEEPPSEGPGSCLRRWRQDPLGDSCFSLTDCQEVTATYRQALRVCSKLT
# MAP3K14 (human) = MAP3K14 (human) (UniProt Q99558)
# CAMK2B (human) = CAMK2B (human) (UniProt Q13554)
# DAPK3 (human) = DAPK3 (human) (UniProt O43293)
# Chain of DAPK3 (human) (O43293 whole entry, looked up): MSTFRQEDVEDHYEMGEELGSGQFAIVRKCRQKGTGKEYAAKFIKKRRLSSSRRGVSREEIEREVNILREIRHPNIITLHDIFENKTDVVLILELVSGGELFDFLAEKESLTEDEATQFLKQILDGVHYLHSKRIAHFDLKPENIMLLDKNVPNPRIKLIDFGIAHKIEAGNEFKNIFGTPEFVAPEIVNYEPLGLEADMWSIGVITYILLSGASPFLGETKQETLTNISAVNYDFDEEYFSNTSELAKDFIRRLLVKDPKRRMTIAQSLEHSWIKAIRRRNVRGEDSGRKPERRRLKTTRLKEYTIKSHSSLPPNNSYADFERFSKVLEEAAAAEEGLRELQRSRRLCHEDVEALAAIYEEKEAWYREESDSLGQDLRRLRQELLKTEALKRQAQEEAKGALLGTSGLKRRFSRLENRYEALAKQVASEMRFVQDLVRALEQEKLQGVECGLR
# PRKD1 (human) = PRKD1 (human) (UniProt Q15139)
# PRKX (human) = PRKX (human) (UniProt P51817)
# LIMK1 (human) = LIMK1 (human) (UniProt P53667)
# Chain of LIMK1 (human) (P53667 whole entry, looked up): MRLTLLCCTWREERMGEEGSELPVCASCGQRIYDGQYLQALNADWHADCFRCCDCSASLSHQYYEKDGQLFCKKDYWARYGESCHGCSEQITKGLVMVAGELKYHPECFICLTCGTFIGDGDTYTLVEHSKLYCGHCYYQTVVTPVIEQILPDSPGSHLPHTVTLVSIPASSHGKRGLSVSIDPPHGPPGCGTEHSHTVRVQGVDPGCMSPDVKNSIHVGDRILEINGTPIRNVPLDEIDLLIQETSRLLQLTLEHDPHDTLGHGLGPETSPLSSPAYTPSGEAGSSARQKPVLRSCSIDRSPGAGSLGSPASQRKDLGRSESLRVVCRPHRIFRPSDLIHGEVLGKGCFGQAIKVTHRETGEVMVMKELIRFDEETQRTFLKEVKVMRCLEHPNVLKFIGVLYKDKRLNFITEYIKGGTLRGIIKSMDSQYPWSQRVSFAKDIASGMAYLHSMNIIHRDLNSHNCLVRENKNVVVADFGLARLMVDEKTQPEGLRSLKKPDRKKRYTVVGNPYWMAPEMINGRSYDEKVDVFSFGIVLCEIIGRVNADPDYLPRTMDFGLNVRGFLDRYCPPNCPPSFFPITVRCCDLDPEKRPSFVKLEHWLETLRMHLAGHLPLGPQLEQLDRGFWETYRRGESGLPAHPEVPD
# MARK2 (human) = MARK2 (human) (UniProt Q7KZI7)
# PRKACA (human) = PRKACA (human) (UniProt P17612)
# TAOK3 (human) = TAOK3 (human) (UniProt Q9H2K8)
# MAP3K8 (human) = MAP3K8 (human) (UniProt P41279)
# TAOK1 (human) = TAOK1 (human) (UniProt Q7L7X3)
# STK25 (human) = STK25 (human) (UniProt O00506)
# MAPK14 (human) = MAPK14 (human) (UniProt Q16539)
# MAP4K5 (human) = MAP4K5 (human) (UniProt Q9Y4K4)
# MKNK2 (human) = MKNK2 (human) (UniProt Q9HBH9)
# NUAK1 (human) = NUAK1 (human) (UniProt O60285)
# Chain of NUAK1 (human) (O60285 whole entry, looked up): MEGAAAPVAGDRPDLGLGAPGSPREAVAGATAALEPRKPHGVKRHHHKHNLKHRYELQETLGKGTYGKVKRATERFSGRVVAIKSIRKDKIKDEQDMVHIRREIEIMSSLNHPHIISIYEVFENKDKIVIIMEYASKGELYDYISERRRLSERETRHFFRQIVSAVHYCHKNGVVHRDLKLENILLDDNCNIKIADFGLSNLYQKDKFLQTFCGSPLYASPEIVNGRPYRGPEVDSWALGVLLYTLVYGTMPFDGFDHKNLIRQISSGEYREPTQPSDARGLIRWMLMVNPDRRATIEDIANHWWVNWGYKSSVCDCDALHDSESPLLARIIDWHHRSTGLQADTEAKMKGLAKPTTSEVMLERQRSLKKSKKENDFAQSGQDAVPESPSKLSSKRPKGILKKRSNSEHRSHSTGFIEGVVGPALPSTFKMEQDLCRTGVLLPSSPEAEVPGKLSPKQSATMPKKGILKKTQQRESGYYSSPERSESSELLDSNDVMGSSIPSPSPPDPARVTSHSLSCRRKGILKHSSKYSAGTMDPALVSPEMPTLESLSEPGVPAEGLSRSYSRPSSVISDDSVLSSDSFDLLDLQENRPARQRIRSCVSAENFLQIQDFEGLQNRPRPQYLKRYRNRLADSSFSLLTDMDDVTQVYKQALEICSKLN
# RPS6KA4 KD2 (human) = RPS6KA4 KD2 (human) (UniProt O75676)
# Chain of RPS6KA4 KD2 (human) (O75676 whole entry, looked up): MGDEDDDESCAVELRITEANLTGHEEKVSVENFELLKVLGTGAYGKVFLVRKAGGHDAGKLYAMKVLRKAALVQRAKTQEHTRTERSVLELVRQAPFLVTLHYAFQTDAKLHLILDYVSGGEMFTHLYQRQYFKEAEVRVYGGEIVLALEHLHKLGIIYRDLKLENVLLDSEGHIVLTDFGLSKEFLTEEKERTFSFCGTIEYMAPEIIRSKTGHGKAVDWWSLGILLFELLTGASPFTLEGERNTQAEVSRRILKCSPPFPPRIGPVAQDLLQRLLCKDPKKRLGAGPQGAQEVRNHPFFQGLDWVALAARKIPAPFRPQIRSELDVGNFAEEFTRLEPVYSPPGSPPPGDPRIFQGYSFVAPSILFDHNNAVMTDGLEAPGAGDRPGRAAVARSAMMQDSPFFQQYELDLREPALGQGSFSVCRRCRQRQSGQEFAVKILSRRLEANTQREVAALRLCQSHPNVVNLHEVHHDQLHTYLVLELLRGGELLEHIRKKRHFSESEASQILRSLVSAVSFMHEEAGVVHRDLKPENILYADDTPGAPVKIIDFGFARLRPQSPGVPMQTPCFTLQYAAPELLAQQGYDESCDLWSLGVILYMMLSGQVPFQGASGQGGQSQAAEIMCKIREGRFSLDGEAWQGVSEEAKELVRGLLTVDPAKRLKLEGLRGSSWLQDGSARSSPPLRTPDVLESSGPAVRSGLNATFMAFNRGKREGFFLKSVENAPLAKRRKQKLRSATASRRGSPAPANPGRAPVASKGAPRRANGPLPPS
# LRRK2 (human) = LRRK2 (human) (UniProt Q5S007)
# TAOK2 (human) = TAOK2 (human) (UniProt Q9UL54)
# INSRR (human) = INSRR (human) (UniProt P14616)
# CSNK1G1 (human) = CSNK1G1 (human) (UniProt Q9HCP0)
# MAP3K3 (human) = MAP3K3 (human) (UniProt Q99759)
# DDR2 (human) = DDR2 (human) (UniProt Q16832)
# SGK2 (human) = SGK2 (human) (UniProt Q9HBY8)
# Chain of GRK6 (human) (P43250 whole entry, looked up): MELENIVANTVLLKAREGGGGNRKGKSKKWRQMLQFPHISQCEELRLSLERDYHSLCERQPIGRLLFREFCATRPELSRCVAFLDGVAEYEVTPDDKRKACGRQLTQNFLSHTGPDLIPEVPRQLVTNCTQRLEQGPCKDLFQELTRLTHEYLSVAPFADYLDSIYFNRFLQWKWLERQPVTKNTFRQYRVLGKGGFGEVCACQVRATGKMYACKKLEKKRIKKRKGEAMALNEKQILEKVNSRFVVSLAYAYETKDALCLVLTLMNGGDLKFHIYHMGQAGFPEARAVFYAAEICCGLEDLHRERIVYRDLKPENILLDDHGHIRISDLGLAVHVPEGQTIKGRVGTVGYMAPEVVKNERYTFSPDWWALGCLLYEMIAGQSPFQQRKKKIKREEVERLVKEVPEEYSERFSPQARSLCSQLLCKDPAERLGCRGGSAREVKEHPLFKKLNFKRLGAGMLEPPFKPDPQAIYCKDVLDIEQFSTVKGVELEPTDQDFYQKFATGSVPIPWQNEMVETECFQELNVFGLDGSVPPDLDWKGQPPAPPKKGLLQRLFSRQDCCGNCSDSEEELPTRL
# Chain of CLK4 (human) (Q9HAZ1 whole entry, looked up): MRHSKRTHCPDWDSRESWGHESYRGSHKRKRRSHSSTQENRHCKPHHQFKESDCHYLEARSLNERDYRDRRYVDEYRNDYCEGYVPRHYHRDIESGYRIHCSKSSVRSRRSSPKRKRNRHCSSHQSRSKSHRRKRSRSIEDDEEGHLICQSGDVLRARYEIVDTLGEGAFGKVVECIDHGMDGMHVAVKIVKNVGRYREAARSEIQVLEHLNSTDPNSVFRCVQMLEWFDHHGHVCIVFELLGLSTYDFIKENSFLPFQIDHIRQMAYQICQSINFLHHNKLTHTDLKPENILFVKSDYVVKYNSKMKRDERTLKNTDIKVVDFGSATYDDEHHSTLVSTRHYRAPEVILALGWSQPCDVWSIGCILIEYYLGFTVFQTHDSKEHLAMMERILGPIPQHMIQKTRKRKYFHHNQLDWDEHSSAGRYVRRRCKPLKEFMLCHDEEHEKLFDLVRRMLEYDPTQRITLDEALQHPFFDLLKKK
compound,measurement,setting,value
O=C(O)/C=C/c1cc(Br)c(Br)c(Br)c1Br,residual activity,CDK7 CCNH MNAT1 (human),88.6%
same,residual activity,CLK4 (human),45.4%
same,residual activity,GRK6 (human),97.2%
same,residual activity,PRKCH (human),83.7%
same,residual activity,STK33 (human),67.9%
same,residual activity,NTRK2 (human),98.2%
same,residual activity,MYLK2 (human),86.8%
same,residual activity,DYRK1A (human),74.8%
same,residual activity,SRPK3 (human),66.9%
same,residual activity,CAMK2G (human),104%
same,residual activity,STK16 (human),90.4%
same,residual activity,IKBKB (human),95.7%
same,residual activity,MLTK (human),89.4%
same,residual activity,EPHA1 (human),94.6%
same,residual activity,ADRBK2 (human),94.3%
same,residual activity,PAK3 (human),100%
same,residual activity,AKT3 (human),92.7%
same,residual activity,NUAK2 (human),98.9%
same,residual activity,MAP3K14 (human),100%
same,residual activity,CAMK2B (human),56.1%
same,residual activity,DAPK3 (human),90.2%
same,residual activity,PRKD1 (human),88.9%
same,residual activity,PRKX (human),96%
same,residual activity,LIMK1 (human),101%
same,residual activity,MARK2 (human),82.1%
same,residual activity,PRKACA (human),98.4%
same,residual activity,TAOK3 (human),85.3%
same,residual activity,MAP3K8 (human),83%
same,residual activity,TAOK1 (human),56.3%
same,residual activity,STK25 (human),87.2%
same,residual activity,MAPK14 (human),99.5%
same,residual activity,MAP4K5 (human),80.3%
same,residual activity,MKNK2 (human),53.8%
same,residual activity,NUAK1 (human),87.6%
same,residual activity,RPS6KA4 KD2 (human),103%
same,residual activity,LRRK2 (human),87.6%
same,residual activity,TAOK2 (human),88.9%
same,residual activity,INSRR (human),88.2%
same,residual activity,CSNK1G1 (human),97.2%
same,residual activity,MAP3K3 (human),105%
same,residual activity,DDR2 (human),94.3%
same,residual activity,SGK2 (human),59.7%
O=C1Cc2c([nH]c3ccc(Br)cc23)-c2ccccc2N1,residual activity,CDK7 CCNH MNAT1 (human),95.1%
same,residual activity,CLK4 (human),91.1%
same,residual activity,GRK6 (human),105%
same,residual activity,PRKCH (human),95.3%
same,residual activity,STK33 (human),103%
same,residual activity,NTRK2 (human),95%
same,residual activity,MYLK2 (human),96.8%
same,residual activity,DYRK1A (human),98.8%
same,residual activity,SRPK3 (human),100%
same,residual activity,CAMK2G (human),116%
same,residual activity,STK16 (human),98.9%
same,residual activity,IKBKB (human),101%
same,residual activity,MLTK (human),88.5%
same,residual activity,EPHA1 (human),100%
same,residual activity,ADRBK2 (human),109%
same,residual activity,PAK3 (human),96.6%
same,residual activity,AKT3 (human),105%
same,residual activity,NUAK2 (human),71.1%
same,residual activity,MAP3K14 (human),106%
same,residual activity,CAMK2B (human),97.8%
same,residual activity,DAPK3 (human),111%
same,residual activity,PRKD1 (human),101%
same,residual activity,PRKX (human),100%
same,residual activity,LIMK1 (human),99.2%
same,residual activity,MARK2 (human),74.3%
same,residual activity,PRKACA (human),102%
same,residual activity,TAOK3 (human),82.8%
same,residual activity,MAP3K8 (human),98.6%
same,residual activity,TAOK1 (human),99.4%
same,residual activity,STK25 (human),98.8%
same,residual activity,MAPK14 (human),93%
same,residual activity,MAP4K5 (human),30.1%
same,residual activity,MKNK2 (human),102%
same,residual activity,NUAK1 (human),14.6%
same,residual activity,RPS6KA4 KD2 (human),108%
same,residual activity,LRRK2 (human),78.7%
same,residual activity,TAOK2 (human),94%
same,residual activity,INSRR (human),95.8%
same,residual activity,CSNK1G1 (human),102%
same,residual activity,MAP3K3 (human),93.2%
same,residual activity,DDR2 (human),98.4%
same,residual activity,SGK2 (human),98.9%
COc1ccc(OC)c2c(=S)c3ccccc3[nH]c12,residual activity,CDK7 CCNH MNAT1 (human),91.7%
same,residual activity,CLK4 (human),104%
same,residual activity,GRK6 (human),97.2%
same,residual activity,PRKCH (human),86.2%
same,residual activity,STK33 (human),98.4%
same,residual activity,NTRK2 (human),94%
same,residual activity,MYLK2 (human),95.7%
same,residual activity,DYRK1A (human),103%
same,residual activity,SRPK3 (human),96.8%
same,residual activity,CAMK2G (human),95.8%
same,residual activity,STK16 (human),90%
same,residual activity,IKBKB (human),103%
same,residual activity,MLTK (human),94%
same,residual activity,EPHA1 (human),89%
same,residual activity,ADRBK2 (human),86.5%
same,residual activity,PAK3 (human),98%
same,residual activity,AKT3 (human),92%
same,residual activity,NUAK2 (human),98.9%
same,residual activity,MAP3K14 (human),96%
same,residual activity,CAMK2B (human),104%
same,residual activity,DAPK3 (human),112%
same,residual activity,PRKD1 (human),99.8%
same,residual activity,PRKX (human),93.5%
same,residual activity,LIMK1 (human),108%
same,residual activity,MARK2 (human),93.9%
same,residual activity,PRKACA (human),97.5%
same,residual activity,TAOK3 (human),92.7%
same,residual activity,MAP3K8 (human),111%
same,residual activity,TAOK1 (human),95.7%
same,residual activity,STK25 (human),96.2%
same,residual activity,MAPK14 (human),104%
same,residual activity,MAP4K5 (human),95.2%
same,residual activity,MKNK2 (human),86.2%
same,residual activity,NUAK1 (human),99.3%
same,residual activity,RPS6KA4 KD2 (human),93.5%
same,residual activity,LRRK2 (human),98%
same,residual activity,TAOK2 (human),100%
same,residual activity,INSRR (human),88.7%
same,residual activity,CSNK1G1 (human),120%
same,residual activity,MAP3K3 (human),117%
same,residual activity,DDR2 (human),97.1%
same,residual activity,SGK2 (human),96.5%
